Test results from patent publication US11186588B2 (AYUMI PHARMACEUTICAL CORPORATION, priority 2017, dated 2021).

biological target: Recombinant BRD4 (44-168) protein (Homo sapiens (Human), UniProt O60885); test: BRD4-H4KAc4 binding assay (amplified luminescence proximity homogeneous assay, AlphaScreen); details: not given
Protocol: In order to evaluate BRD4 inhibitory activity of the present compounds, BRD4-H4KAc4 binding assay was carried out by an amplified luminescence proximity homogeneous assay. The specific method is described below.
H4KAc4 peptide (available from Toray Research Center, Inc., sequence SGRGK(Ac)GGK(Ac)GLGK(Ac)GGAK(Ac)RHR-K(Biotin)-NH2) was dissolved in 1×Assay buffer to prepare 1 mM H4KAc4 peptide stock solution.
N-terminal His tag/C-terminal FLAG tag-fused type Recombinant BRD4 (44-168) protein (available from Active Motif, Cat No. 31380) was diluted with 1×Assay buffer to 1,250-fold to prepare 250 nM BRD4 solution.
1% DMSO solution (control) and 2 μL of each compound solution in each concentration were added to each well of AlphaPlate-384 (from PerkinElmer, Cat No. 6008350). Next, 2 μL of 250 nM BRD4 solution was added to each well of AlphaPlate-384. Further, 2 μL of 250 nM H4KAc4 peptide solution was added to each well of AlphaPlate-384. After addition of the 250 nM H4KAc4 peptide solution, the mixture was allowed to stand at room temperature under light shielding for 60 minutes, and 4 μL of AlphaScreen beads were added to each well of AlphaPlate-384. After addition of the AlphaScreen beads, the mixture was allowed to stand at room temperature under light shielding for 60 minutes, emission at 520-620 nm upon excitation at 680 nm was detected by EnVision multilabel counter (from PerkinElmer), and binding of BRD4 and H4KAc4 was detected. Incidentally, the evaluation of each compound was carried out in duplicate (2 well per 1 compound).
(§1) The BRD4 inhibition rate (%) was calculated by the following equation using Microsoft EXCEL 2010. BRD4 inhibition rate (%)=100−{(luminescence intensity average value of each compound added well)−(average value of luminescence intensity of blank well))/(average value of luminescence intensity of control well)−(average value of luminescence intensity of blank well)}×100

Cc1nnc2n1-c1sccc1C(c1ccc(Cl)cc1)=NN2 [Example 59, 4-(4-chlorophenyl)-9-methyl-6H-thieno[2,3-e][1,2,4]triazolo[3,4-c][1,2,4]triazepine] gave an inhibition at 10 µM of 100%.

same assay, conditions: 10 uM

Point of comparison: Cc1sc2c(c1C)C(c1ccc(Cl)cc1)=NN(Cc1cccnc1C(=O)O)c1nnc(C)n1-2 [Example 84, 3-((4-(4-chlorophenyl)-2,3,9-trimethyl-6H-thieno[2,3-e][1,2,4]triazolo[3,4-c][1,2,4]triazepin-6-yl)methyl)picolinic acid], inhibition at 10 µM 100%. Against it:
- Cc1sc2c(c1C)C(c1ccc(Cl)cc1)=NNc1nnc(C)n1-2 [Example 1, 4-(4-chlorophenyl)-2,3,9-trimethyl-6H-thieno[2,3-e][1,2,4]triazolo[3,4-c][1,2,4]triazepine] — lower, 99.9%
- COc1ccc(CN2N=C(c3ccc(Cl)cc3)c3c(sc(C)c3C)-n3c(C)nnc32)cc1 [Example 2, 4-(4-chlorophenyl)-6-(4-methoxybenzyl)-2,3,9-trimethyl-6H-thieno[2,3-e][1,2,4]triazolo[3,4-c][1,2,4]triazepine] — the same, 100%
- Cc1sc2c(c1C)C(c1ccc(Cl)cc1)=NN(Cc1cccnc1)c1nnc(C)n1-2 [Example 4, 4-(4-chlorophenyl)-2,3,9-trimethyl-6-(pyridin-3-ylmethyl)-6H-thieno[2,3-e][1,2,4]triazolo[3,4-c][1,2,4]triazepine] — the same, 100%
- Cc1sc2c(c1C)C(c1ccc(Cl)cc1)=NN(C(=O)Nc1ccccc1)c1nnc(C)n1-2 [Example 15, 4-(4-Chlorophenyl)-2,3,9-trimethyl-N-phenyl-6H-thieno[2,3-e][1,2,4]triazolo[3,4-c][1,2,4]triazepine-6-carboxamide] — lower, 22.3%
- Cc1sc2c(c1C)C(c1ccc(Cl)cc1)=NN(Cc1ccccc1C(F)(F)F)c1nnc(C)n1-2 [Example 17, 4-(4-chlorophenyl)-2,3,9-trimethyl-6-(2-(trifluoromethyl)benzyl)-6H-thieno[2,3-e][1,2,4]triazolo[3,4-c][1,2,4]triazepine] — lower, 69.7%
- Cc1sc2c(c1C)C(c1ccc(Cl)cc1)=NN(CCCc1ccccc1)c1nnc(C)n1-2 [Example 20, 4-(4-chlorophenyl)-2,3,9-trimethyl-6-(3-phenylpropyl)-6H-thieno[2,3-e][1,2,4]triazolo[3,4-c][1,2,4]triazepine] — lower, 82.2%
- COc1ccc(CN2N=C(c3ccccc3)c3c(sc(C)c3C)-n3c(C)nnc32)cc1 [Example 28, 6-(4-methoxybenzyl)-2,3,9-trimethyl-4-phenyl-6H-thieno[2,3-e][1,2,4]triazolo[3,4-c][1,2,4]triazepine] — higher, 101%
- Cc1sc2c(c1C)C(c1ccccc1)=NN(Cc1cccnc1)c1nnc(C)n1-2 [Example 30, 2,3,9-trimethyl-4-phenyl-6-(pyridin-3-ylmethyl)-6H-thieno[2,3-e]-[1,2,4]triazolo[3,4-c][1,2,4]triazepine] — higher, 101%
- Cc1sc2c(c1C)C(c1ccccc1)=NN(Cc1ccncc1)c1nnc(C)n1-2 [Example 32, 2,3,9-trimethyl-4-phenyl-6-(pyridin-4-ylmethyl)-6H-thieno[2,3-e][1,2,4]triazolo[3,4-c][1,2,4]triazepine] — the same, 100%
- Cc1sc2c(c1C)C(c1ccc(Cl)cc1)=NN(C(=O)NCc1ccccc1)c1nnc(C)n1-2 [Example 35, N-benzyl-4-(4-chlorophenyl)-2,3,9-trimethyl-6H-thieno[2,3-e][1,2,4]triazolo[3,4-c][1,2,4]triazepine-6-carboxamide] — lower, 6.6%
- Cc1sc2c(c1C)C(c1ccc(Cl)cc1)=NN(Cc1ccc(Cl)nc1)c1nnc(C)n1-2 [Example 37, 4-(4-chlorophenyl)-6-((6-chloropyridin-3-yl)methyl)-2,3,9-trimethyl-6H-thieno[2,3-e][1,2,4]triazolo[3,4-c][1,2,4]triazepine] — the same, 100%
- COc1cccnc1CN1N=C(c2ccc(Cl)cc2)c2c(sc(C)c2C)-n2c(C)nnc21 [Example 54, 4-(4-chlorophenyl)-6-((3-methoxypyridin-2-yl)methyl)-2,3,9-trimethyl-6H-thieno[2,3-e][1,2,4]triazolo[3,4-c][1,2,4]triazepine] — lower, 99.9%
- Cc1nnc2n1-c1sccc1C(c1ccc(Cl)cc1)=NN2Cc1ccccn1 [Example 62, 4-(4-chlorophenyl)-9-methyl-6-(pyridin-2-ylmethyl)-6H-thieno[2,3-e][1,2,4]triazolo[3,4-c][1,2,4]triazepine] — the same, 100%
- COc1ccc(CN2N=C(c3ccc(Cl)cc3)c3c(C)csc3-n3c(C)nnc32)cc1 [Example 66, 4-(4-chlorophenyl)-6-(4-methoxybenzyl)-3,9-dimethyl-6H-thieno[2,3-e][1,2,4]triazolo[3,4-c][1,2,4]triazepine] — the same, 100%
- COc1ccc(CN2N=C(c3ccc(Cl)cc3)c3cccnc3-n3c(C)nnc32)cc1 [Example 67, 5-(4-chlorophenyl)-7-(4-methoxybenzyl)-10-methyl-7H-pyrido[2,3-e][1,2,4]triazolo[3,4-c][1,2,4]triazepine] — the same, 100%
- COc1ccc(CN2N=C(c3ccc(Cl)cc3)c3c(sc(C)c3C)-n3c(CO)nnc32)cc1 [Example 68, (4-(4-chlorophenyl)-6-(4-methoxybenzyl)-2,3-dimethyl-6H-thieno[2,3-e][1,2,4]triazolo[3,4-c][1,2,4]triazepin-9-yl)methanol] — lower, 19.2%
- COc1ccc(CN2N=C(c3ccc(Cl)cc3)c3c(sc(C)c3C)-n3c2nnc3C(F)(F)F)cc1 [Example 69, 4-(4-chlorophenyl)-6-(4-methoxybenzyl)-2,3-dimethyl-9-(trifluoromethyl)-6H-thieno[2,3-e][1,2,4]triazolo[3,4-c][1,2,4]triazepine] — lower, 52%
- Cc1sc2c(c1C)C(c1ccccc1Cl)=NN(Cc1cccnc1)c1nnc(C)n1-2 [Example 72, 4-(2-chlorophenyl)-2,3,9-trimethyl-6-(pyridin-3-ylmethyl)-6H-thieno[2,3-e][1,2,4]triazolo[3,4-c][1,2,4]triazepine] — the same, 100%
- COc1ccc(C2=NN(Cc3cccnc3)c3nnc(C)n3-c3sc(C)c(C)c32)cc1 [Example 76, 4-(4-methoxyphenyl)-2,3,9-trimethyl-6-(pyridin-3-ylmethyl)-6H-thieno[2,3-e][1,2,4]triazolo[3,4-c][1,2,4]triazepine] — the same, 100%
- CCNC(=O)c1ncccc1CN1N=C(c2ccc(Cl)cc2)c2c(sc(C)c2C)-n2c(C)nnc21 [Example 85, 3-((4-(4-chlorophenyl)-2,3,9-trimethyl-6H-thieno[2,3-e][1,2,4]triazolo[3,4-c][1,2,4]triazepin-6-yl)methyl)-N-ethylpicolinamide] — lower, 13.3%

For Cc1sc2c(c1C)C(c1ccc(Cl)cc1)=NN(C(=O)Nc1ccccc1)c1nnc(C)n1-2 [Example 91, 4-(4-chlorophenyl)-2,3,9-trimethyl-N-phenyl-6H-thieno[2,3-e][1,2,4]triazolo[3,4-c][1,2,4]triazepine-6-carboxamide], the “BRD4-H4KAc4 binding % of inhibition@10 uM” value was 22.4%.

system: NF-κB; test: NF-κB reporter gene assay (TNF-α stimulated A549/NF-κB-luc cells); type: cell-based; details: Homo sapiens, TNF-α stimulation
Protocol: In order to evaluate NF-κB inhibitory activity of the present compounds, NF-κB reporter gene assay was carried out. The specific method is described below.
Gene recombinant human TNF-α (available from R&D systems, Cat No. 210-TA) was dissolved in D-PBS(−) (available from Wako Pure Chemical Industries, Ltd., Cat No. 293-72601) to prepare 100 μg/mL of TNF-α solution stock solution. 100 μg/mL of the TNF-α solution stock solution was diluted with the culture medium to prepare 10 ng/mL of TNF-α solution.
A549/NF-κB-luc cells (available from Panomics, Cat No. LR0051) were prepared at 375,000 cells/mL in the culture medium. The 375,000 cells/mL A549/NF-κB-luc cell suspension was seeded at 80 μL each on a white 96-well plate (available from Greiner, Cat No. 655073). One hour after seeding the cells, 10 μL of 2% DMSO solution (control) and each compound solution in each concentration were added to each well of the 96-well plate. One hour after the addition of each compound solution, 10 ng/mL of the TNF-α solution (10 μL) was added to each well of the 96-well plate. Three hours after the addition of 10 ng/mL of the TNF-α solution, 100 μL of Steady-Glo reagent (available from Promega, Cat No. E2510) was added to each well of the 96-well plate. After 30 to 90 minutes of the addition of the Steady-Glo reagent, the luminescence intensity of each well was detected by EnVision multilabel counter (available from PerkinElmer).
as §1, with “NF-κB” for “The BRD4”, “NF-κB” for “BRD4”, “well)}×100 In addition, IC50 values were calculated from the calculated NF-κB inhibition rate (%) using curve fitting software XLfit (available from IDBS).” for “well)}×100”

With CC(=O)Nc1ccc(C2=NN(Cc3cncc(O)c3)c3nnc(C)n3-c3sc(C)c(C)c32)cc1 [Example 99, N-(4-(6-((5-hydroxypyridin-3-yl)methyl)-2,3,9-trimethyl-6H-thieno[2,3-e][1,2,4]triazolo[3,4-c][1,2,4]triazepin-4-yl)phenyl)acetamide] the IC50 was 1.64 µM.
